Experiments:
[1] = Antiproliferative effects against human SHEP cells after 72 hrs by Alamar blue assay
MRC5 = assay: Antiproliferative effects against human MRC5 cells after 72 hrs by Alamar blue assay; conditions: MRC5, 72 h

Compound | IC50 [1] [µM] | IC50 (MRC5) [µM]
Oc1ccc(C2=Cc3cc(CN4CCOCC4)c(O)cc3OC2)cc1CN1CCOCC1 | 171 | –
Oc1ccc(C2=Cc3cc(CN4CCOCC4)c(O)c(CN4CCOCC4)c3OC2)cc1CN1CCOCC1 | 69 | –
Oc1ccc(C2=Cc3cc(CN4CCCCC4)c(O)cc3OC2)cc1CN1CCCCC1 | 4.2 | –
CC(C)NCc1cc2c(cc1O)OC=C(c1ccc(O)cc1)C2 | 15.1 | –
Oc1ccc(C2=COc3cc(O)ccc3C2)cc1 [ISOPHENOXODIOL] | 8.4 | 109
CCCCCCCN1COc2cc3c(cc2C1)C=C(c1ccc(O)cc1)CO3 | 1.4 | 11.9
OCCNCc1cc2c(cc1O)OC=C(c1ccc(O)cc1)C2 | 27.5 | –
C1=C(c2ccc3c(c2)CN(Cc2ccccc2)CO3)COc2cc3c(cc21)CN(Cc1ccccc1)CO3 | 3.7 | –
CCCCNCc1cc2c(cc1O)OC=C(c1ccc(O)cc1)C2 | 4 | 33.8
CCN(CC)Cc1cc(C2=Cc3cc(CN(CC)CC)c(O)cc3OC2)ccc1O | 3.4 | 21.2
Oc1ccc(C2=Cc3cc(CN4CCOCC4)c(O)cc3OC2)cc1 | 86.8 | –
Oc1ccc(C2=COc3cc(O)c(CNCc4ccccc4)cc3C2)cc1 | 5.7 | 40.9
Oc1ccc(C2=COc3cc(O)c(CNCCc4ccccc4)cc3C2)cc1 | 1.8 | 36.7
Oc1ccc(C2=Cc3cc4c(cc3OC2)OCN(Cc2ccccc2)C4)cc1 | 5.7 | –
CCCCN1COc2cc3c(cc2C1)C=C(c1ccc(O)cc1)CO3 | 3.9 | 33.8
CCCCCCCNCc1cc2c(cc1O)OC=C(c1ccc(O)cc1)C2 | 2.8 | 16
Oc1ccc(C2=Cc3cc4c(cc3OC2)OCN(CCc2ccccc2)C4)cc1 | 0.7 | 197
CC(C)N1COc2cc3c(cc2C1)C=C(c1ccc(O)cc1)CO3 | 12.2 | –
CN(C)Cc1cc2c(cc1O)OC=C(c1ccc(O)cc1)C2 | 5.8 | –
Oc1ccc(C2=Cc3cc(CN4CCCCC4)c(O)cc3OC2)cc1 | 19.9 | –
C=CCN1COc2cc3c(cc2C1)C=C(c1ccc(O)cc1)CO3 | 9.1 | –
CCCCOCCCNCc1cc2c(cc1O)OC=C(c1ccc(O)cc1)C2 | 5.1 | –
CCN(CC)Cc1cc2c(cc1O)OCC(c1ccc(O)cc1)=C2 | 35.7 | –
OCCN1COc2cc3c(cc2C1)C=C(c1ccc(O)cc1)CO3 | 24.6 | –
CN1COc2cc3c(cc2C1)C=C(c1ccc(O)cc1)CO3 | 6.6 | –

— ChEMBL document CHEMBL3632474, “Synthesis, biological evaluation and structure-activity relationship studies of isoflavene based Mannich bases with potent anti-cancer activity” (Bioorg Med Chem Lett, 2015)
